Laboratory results published in patent US20240180915A1, “OIL-IN-WATER EMULSION OF 6-ETHOXY-7-METHOXY-2-(2-[…])-3,L-BENZOXAZIN-4-ONE” (SIXERA PHARMA AB, priority 2021, published 2024).

Tests used:
[1] = Solubility of the active in water and organic solvents (statement); assay type: physicochemical
Source text: However, such organic solvents are unsuitable for use in topical formulations for treatment of skin disease.

[2] = Initial formulation attempts with common solvents and excipients: crystal formation upon storage; assay type: physicochemical; conditions: common pharmaceutically acceptable solvents and excipients
Source text: Accordingly, further development was needed to arrive at a stable topical formulation where crystal formation of 6-ethoxy-7-methoxy-2-(2-methylsulfanylphenyl)-3,1-benzoxazin-4-one can be avoided.

Solubility in water ([1]; water): low solubility in water
Compound: CCOc1cc2c(=O)oc(-c3ccccc3SC)nc2cc1OC [6-Ethoxy-7-methoxy-2-(2-methylsulfanylphenyl)-3,1-benzoxazin-4-one]
Solubility in organic solvents ([1]; various organic solvents): can be dissolved in various organic solvents
Crystal formation upon storage of the formulation [2]: form needle shaped crystals upon storage of the formulation
